Assay results taken from patent publication US20080312209A1, “Piperazine Heteroaryl Derivatives as Gpr38 Agonists” (Glaxo Group Limited, priority 2005, published 2008).
pEC50: −log10 of the molar value.

Legend:
hGPR38R [1] = biological target: T1, hGPR38R (Homo sapiens, UniProt O43193); assay: GPR38 FLIPR functional agonist assay; format: cell-based; design: expressed in transfected cells; conditions: HEK-293 cells stably expressing the GPR38 receptor, agonist response, Fluo-4 fluorescence; for pEC50: pEC50 in the FLIPR assay; for EC50: read-out: pEC50 in the FLIPR assay (converted)
Description: The potencies and efficacies of the compounds of this invention for GPR^38 can be determined by FLIPR assay performed on the human cloned receptor as described herein. It has been found, using the FLIPR functional assay, that compounds of formula (I) appear to be partial or full agonists of the GPR38 receptor.
GPR38FLIPR Functional Agonist Assay Protocol
HEK-293 cells stably expressing the GPR38 receptor were seeded (10,000 cells/well) into poly-D-lysine coated 384-well black-wall, clear-bottom microtitre plates (Becton Dickinson) 24 h prior to assay. On day of assay, cells were washed (×2) with 80 ul of assay buffer (Hanks Balanced Salts Solution (HBSS), 10 mM HEPES, 200 μM Ca^2+, 2.5 mM probenecid) using the EMBLA cell washer. After the final wash, buffer was aspirated to leave a residual volume of 30 ul on the cells. Cells were loaded with 1 μM (final) Fluo-4-AM fluorescent indicator dye (TefLabs) in assay buffer, (20 ul loading solution added to each well using the Multidrop). Plates were incubated for 1 h at 37° C., before being washed (×3) with 80 ul assay buffer using the EMBLA cell washer; 30 ul residual being left after the final wash. Plates were then assayed on a Fluorometric Imaging Plate Reader (FLIPR, Molecular Devices). Test compounds were prepared in assay buffer without probenecid, but containing 0.03% CHAPS. In the FLIPR, 10 ul of test compound was added to the cells and changes in fluorescence measured over a 2 min timeframe. Maximum change in fluorescence over baseline was used to determine agonist response and concentration response curves were constructed, using a 4-parameter logistic equation.
(§1) The following alternative procedure may also be used:
HEK-293 cells stably expressing the GPR38 receptor were seeded (30,000 cells/100 ul growth media/well) into poly-D-lysine coated 96-well black-wall, clear-bottom microtitre plates (Corning) 24 hours prior to assay. On the day of assay the cells were loaded with 2 μM (final) Fluo-4-AM fluorescent indicator dye (Molecular Probes) and 1 mM (final) probenicid in assay buffer (145 mM sodium chloride, 2.5 mM potassium chloride, 10 mM Hepes, 10 mM glucose, 1.2 mM magnesium chloride, 1.5 mM calcium chloride and 0.1% BSA) (50 ul loading solution added to each well). Plates were incubated for 1 hour at 25° C., before being washed 4 times with 100 ul assay buffer using the EMBLA cell washer; 150 ul residual being left after the final wash. The cells were then incubated at 25° C. for 20 minutes and the plates were then assayed on a Fluorometric Imaging Plate Reader (FLIPR, Molecular Devices). Test compounds were prepared in assay buffer without probenecid. In the FLIPR, 50 ul of test compound was added to the cells and changes in fluorescence measured over a 2 minute timeframe. Maximum change in fluorescence over baseline was used to determine agonist response and concentration response curves were constructed, using a 4-parameter logistic equation.
Target sequence in this assay (O43193 whole entry): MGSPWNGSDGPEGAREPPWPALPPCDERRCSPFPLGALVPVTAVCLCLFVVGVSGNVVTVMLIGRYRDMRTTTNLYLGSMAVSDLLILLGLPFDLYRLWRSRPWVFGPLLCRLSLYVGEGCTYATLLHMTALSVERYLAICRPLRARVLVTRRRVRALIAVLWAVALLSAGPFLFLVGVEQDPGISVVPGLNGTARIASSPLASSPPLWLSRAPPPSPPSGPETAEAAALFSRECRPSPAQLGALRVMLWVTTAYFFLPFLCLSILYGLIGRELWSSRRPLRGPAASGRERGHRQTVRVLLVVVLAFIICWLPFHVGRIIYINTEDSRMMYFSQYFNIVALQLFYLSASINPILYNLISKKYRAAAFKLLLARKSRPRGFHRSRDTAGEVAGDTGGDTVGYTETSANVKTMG

hGPR38R [2] = biological target: T1, hGPR38R; assay: GPR38 GTPγS functional agonist assay; format: biochemical; design: expressed in transfected cells; host or cells: HEK293 (transient transfection; P2 membrane fractions); conditions: for EC50: [35S]GTPγS SPA, HEK293 membranes with hGPR38R and Go G-protein, read-out: pEC50 in the GTPγS assay (converted)
Description: The potencies and intrinsic activities of the compounds of this invention can also be determined according to the [35S]GTPγS functional assay which is described herein. It has been found, using the [35S]GTPγS functional assay, that compounds of formula (I) appear to be partial or full agonists of the GPR38 receptor.
GPR38GTPγS Functional Agonist Assay Protocol
For each compound being assayed, in an Opti clear bottom 96 well plate, is added:—
(a) 20 μl of test compound (or 10 μl of guanosine 5′-triphosphate (GTP) as non-specific binding control) diluted to required concentration in assay buffer (20 mM N-2-Hydroxyethylpiperazine-N′-2-ethanesulfonic acid (HEPES)+100 mM NaCl+10 mM MgCl2, pH adjusted to 7.4 with NaOH); (b) 60 μl bead/membrane/GDP mix prepared by suspending wheat germ agglutinin-polyvinyltoluene (WGA-PVT) scintillation proximity assay (SPA) beads at 100 mg/ml in assay buffer followed by mixing with membrane (prepared in accordance with the methodology described above) and diluting in assay buffer to give a final volume of 60 μl which contains 10 μg protein and 0.5 mg bead per well—mixture is pre-mixed at 4° C. for 30 min on a roller and just prior to addition to the plate, 10 μM final concentration of guanosine 5′ diphosphate (GDP—diluted in assay buffer) is added; (c) 20 μl guanosine 5′ [γ35-S]thiotriphosphate, triethylamine salt (Amersham; radioactivity concentration=37 kBq/μl or 1 mCi/ml; Specific Activity 1160 Ci/mmol) diluted to 1.9 nM in assay buffer to give 0.38 nM final.
The plate is incubated on a shaker at 25° C. for 30 min followed by centrifugation for 5 min at 1500 rpm. The plate is read between 3 and 6 h after completion of centrifuge run in a Wallac Microbeta counter on a 1 min normalised tritium count protocol. Data is analysed using a 4-parameter logistic equation. Basal activity used as minimum.
as §1
Target sequence in this assay (O43193 whole entry): as above
Target sequence in this assay (P09471 2-354 partner limits assumed): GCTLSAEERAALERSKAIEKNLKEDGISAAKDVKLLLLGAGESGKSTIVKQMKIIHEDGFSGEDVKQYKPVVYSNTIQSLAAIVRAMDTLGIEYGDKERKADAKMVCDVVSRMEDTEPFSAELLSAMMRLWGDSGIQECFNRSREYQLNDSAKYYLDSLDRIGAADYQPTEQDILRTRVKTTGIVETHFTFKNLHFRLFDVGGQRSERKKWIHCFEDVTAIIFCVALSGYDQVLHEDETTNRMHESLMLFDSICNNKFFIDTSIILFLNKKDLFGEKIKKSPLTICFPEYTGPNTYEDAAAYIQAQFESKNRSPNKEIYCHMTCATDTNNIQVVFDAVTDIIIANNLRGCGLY
Target sequence in this assay (P62873 2-340 partner limits assumed): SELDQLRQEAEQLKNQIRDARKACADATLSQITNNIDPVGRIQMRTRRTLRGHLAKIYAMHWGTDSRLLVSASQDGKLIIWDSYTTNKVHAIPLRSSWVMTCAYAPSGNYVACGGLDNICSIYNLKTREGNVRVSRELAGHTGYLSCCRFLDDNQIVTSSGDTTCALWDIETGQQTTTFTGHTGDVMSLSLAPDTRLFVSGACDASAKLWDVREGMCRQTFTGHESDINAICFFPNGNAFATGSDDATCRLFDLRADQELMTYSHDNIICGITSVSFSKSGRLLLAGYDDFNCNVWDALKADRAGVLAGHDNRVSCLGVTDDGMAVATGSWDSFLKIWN
Target sequence in this assay (P59768 2-68 partner limits assumed): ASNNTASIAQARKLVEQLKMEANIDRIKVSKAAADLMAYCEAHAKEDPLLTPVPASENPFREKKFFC
Membranes are derived from bulk cell cultures of HEK293 cell lines transiently transfected with hGPR38R and Go G-protein. P2 membranes fractions are prepared, aliquoted and stored at −80° C.
For each compound being assayed, the following is added into a white Greiner 384 well plate:—
(a) 1 μl of test compound diluted to required concentration in DMSO. (b) 20 μl bead/membrane/Saponin/GDP mix prepared as follows;—suspension of LEADseeker wheat germ agglutinin (WGA) scintillation proximity assay (SPA) beads at 25 mg/ml in assay buffer (20 mM N-2-Hydroxyethylpiperazine-N′-2-ethanesulfonic acid (HEPES)+100 mM NaCl+10 mM MgCl2, pH adjusted to 7.4 with KOH) containing saponin at 150 ug/ml. Mixing of bead suspension with membranes at 500 ug/ml (prepared in accordance with the methodology described above) and diluting in assay buffer to give a final volume of 20 μl which contains 5 μg protein and 0.25 mg bead per well.
Mixture is pre-mixed for 30 minutes on a roller and just prior to addition to the plate, 3 μM final assay concentration of guanosine 5′ diphosphate (GDP) (diluted in assay buffer) is added.
(c) 25 μl guanosine 5′ [γ35-S]thiotriphosphate, triethylamine salt (Amersham; radioactivity concentration=37 kBq/μl or 1 mCi/ml; Specific Activity 1160 Ci/mmol) diluted to 0.6 nM in assay buffer to give 0.33 nM final assay concentration.
The plate is then spun for 2 minutes at 1500 rpm and then incubated at room temperature for 4 hours. The plate is then read on a Viewlux Plux (Perkin Elmer). Data is analysed using a 4-parameter logistic equation.

Structure (SMILES) | pEC50 (hGPR38R [1]) | pEC50 (hGPR38R [2]) | EC50 (hGPR38R [1]) | EC50 (hGPR38R [2])
C[C@@H]1CN(Cc2ccc(-c3cccnc3C(=O)N3CCC(Nc4cccc(F)c4)CC3)cc2F)C[C@H](C)N1 [Example 11, 1-{[3-(4-{[(3R,5S)-3,5-dimethyl-1-piperazinyl]methyl}-3-fluorophenyl)-2-pyridinyl]carbonyl}-N-(3-fluorophenyl)-4-piperidinamine] | > 6.50 | > 5.50 | – | –
C[C@@H]1CN(Cc2ccc(-c3cccnc3C(=O)N3CCC(Nc4ccc(F)c(F)c4)CC3)cc2F)C[C@H](C)N1 [Example 12, N-(3,4-difluorophenyl)-1-{[3-(4-{[(3R,5S)-3,5-dimethyl-1-piperazinyl]methyl}-3-fluorophenyl)-2-pyridinyl]carbonyl}-4-piperidinamine] | > 6.50 | > 5.50 | – | –
C[C@@H]1CN(Cc2ccc(-c3cccnc3C(=O)N3CCC(Sc4ccc(Cl)cc4)CC3)cc2F)C[C@H](C)N1 [Example 13, (3R,5S)-1-({4-[2-({4-[(4-chlorophenyl)thio]-1-piperidinyl}carbonyl)-3-pyridinyl]-2-fluorophenyl}methyl)-3,5-dimethylpiperazine] | – | – | < 316 nM | < 3160 nM
C[C@H]1CN(Cc2ccc(-c3cccnc3C(=O)N3CCC(Nc4cccc(F)c4)CC3)cc2)CCN1 [Example 14, N-(3-fluorophenyl)-1-{[3-(4-{[(3S)-3-methyl-1-piperazinyl]methyl}phenyl)-2-pyridinyl]carbonyl}-4-piperidinamine] | > 6.50 | > 5.50 | – | –
C[C@@H]1CN(Cc2ccc(-c3cccnc3C(=O)N3CCC(Nc4ccc(F)c(F)c4)CC3)cc2)C[C@H](C)N1 [Example 15, N-(3,4-difluorophenyl)-1-{[3-(4-{[(3R,5S)-3,5-dimethyl-1-piperazinyl]methyl}phenyl)-2-pyridinyl]carbonyl}-4-piperidinamine] | > 6.50 | > 5.50 | – | –
C[C@@H]1CN(Cc2ccc(-c3cccnc3C(=O)N3CCC(Nc4ccc(F)cc4)C3)cc2)C[C@H](C)N1 (stereo partly drawn) [Example 16, 1-{[3-(4-{[(3R,5S)-3,5-dimethyl-1-piperazinyl]methyl}phenyl)-2-pyridinyl]carbonyl}-N-(4-fluorophenyl)-3-pyrrolidinamine] | – | – | < 316 nM | < 3160 nM
COc1cc(-c2cccnc2C(=O)N2CCC(Nc3ccc(F)cc3)CC2)ccc1CN1C[C@@H](C)N[C@@H](C)C1 [Example 17] | > 6.50 | > 5.50 | – | –
C[C@@H]1CN(Cc2ccc(-c3cccnc3C(=O)N3CC[C@H](Oc4ccc(F)cc4)C3)cc2)C[C@H](C)N1 [Example 18, (3R,5S)-1-({4[2-({(3S)-3-[(4-fluorophenyl)oxy]-1-pyrrolidinyl}carbonyl)-3-pyridinyl]phenyl}methyl)-3,5-dimethylpiperazine] | – | – | < 316 nM | < 3160 nM
C[C@@H]1CN(Cc2ccc(-c3cccnc3S(=O)(=O)N3CCC(Nc4ccccc4F)CC3)cc2F)C[C@H](C)N1 [Example 20, 1-{[3-(4-{[(3R,5S)-3,5-Dimethyl-1-piperazinyl]methyl}-3-fluorophenyl)-2-pyridinyl]sulfonyl}-N-(2-fluorophenyl)-4-piperidinamine] | – | – | < 1000 nM | < 3160 nM
C[C@@H]1CN(Cc2ccc(-n3ccnc3C(=O)N3CCC(Nc4cccc(F)c4)CC3)cc2)C[C@H](C)N1 [Example 21, 1-{[1-(4-{[(3R,5S)-3,5-Dimethyl-1-piperazinyl]methyl}phenyl)-1H-imidazol-2-yl]carbonyl}-N-(3-fluorophenyl)-4-piperidinamine] | > 6.50 | > 5.50 | – | –
C[C@@H]1CN(Cc2ccc(-n3ccnc3C(=O)N3CCC(Nc4ccc(F)cc4)CC3)cc2)C[C@H](C)N1 [Example 22, 1 {[1-(4-{[(3R,5S)-3,5-Dimethyl-1-piperazinyl]methyl}phenyl)-1H-imidazol-2-yl]carbonyl}-N-(4-fluorophenyl)-4-piperidinamine] | > 6.50 | > 5.50 | – | –
COc1cc(NC2CCN(C(=O)c3ncccc3-c3ccc(CN4C[C@@H](C)N[C@@H](C)C4)c(F)c3)CC2)ccc1F [Example 28, 1-{[3-(4-{[(3R,5S)-3,5-dimethyl-1-piperazinyl]methyl}-3-fluorophenyl)-2-pyridinyl]carbonyl}-N-[4-fluoro-3-(methyloxy)phenyl]-4-piperidinamine] | – | – | < 316 nM | < 3160 nM
C[C@@H]1CN(Cc2ccc(-c3cccnc3C(=O)N3CCC(Nc4cccc(C#N)c4)CC3)cc2)C[C@H](C)N1 [Example 29, 3-[(1-{[3-(4-{[(3R,5S)-3,5-dimethyl-1-piperazinyl]methyl}phenyl)-2-pyridinyl]carbonyl}-4-piperidinyl)amino]benzonitrile] | – | – | < 316 nM | < 3160 nM
C[C@@H]1CN(Cc2ccc(-c3cccnc3C(=O)N3CCC(Nc4ccccc4F)CC3)cc2)C[C@H](C)N1 [Example 31, 1-{[3-(4-{[(3R,5S)-3,5-dimethyl-1-piperazinyl]methyl}phenyl)-2-pyridinyl]carbonyl}-N-(2-fluorophenyl)-4-piperidinamine] | > 6.00 | > 5.50 | – | –
C[C@@H]1CN(Cc2ccc(-c3cccnc3C(=O)N3CCC(Nc4cccc(F)c4)C3)cc2)C[C@H](C)N1 (stereo partly drawn) [Example 33, 1-{[3-(4-{[(3R,5S)-3,5-dimethyl-1-piperazinyl]methyl}phenyl)-2-pyridinyl]carbonyl}-N-(3-fluorophenyl)-3-pyrrolidinamine] | – | – | < 316 nM | < 3160 nM
